Assay results reported in BindingDB's records for patent US20250313563 (The Broad Institute, 2025).
Values joined by “and” are separate entries in the source; they are usually repeats but may differ in a detail not shown here. Identical values can stand only once.

Key:
[1] = target: Glycogen synthase kinase-3 alpha (Homo sapiens, UniProt P49840); assay: TR-FRET Assay
How it was run: (§1)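 Compound was preincubated 30 min in assay buffer before the kinase reaction, which was quenched with EDTA. Phosphorylation was detected by TR-FRET after adding a solution of 40 nM streptavidin-d2 and 2 nM Tb-labelled anti-pSer641 antibody.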

[2] = target: Glycogen synthase kinase-3 beta (Homo sapiens, UniProt P49841); assay: TR-FRET Assay
How it was run: as §1

Glycogen synthase kinase-3 alpha, sequence (P49840 whole entry): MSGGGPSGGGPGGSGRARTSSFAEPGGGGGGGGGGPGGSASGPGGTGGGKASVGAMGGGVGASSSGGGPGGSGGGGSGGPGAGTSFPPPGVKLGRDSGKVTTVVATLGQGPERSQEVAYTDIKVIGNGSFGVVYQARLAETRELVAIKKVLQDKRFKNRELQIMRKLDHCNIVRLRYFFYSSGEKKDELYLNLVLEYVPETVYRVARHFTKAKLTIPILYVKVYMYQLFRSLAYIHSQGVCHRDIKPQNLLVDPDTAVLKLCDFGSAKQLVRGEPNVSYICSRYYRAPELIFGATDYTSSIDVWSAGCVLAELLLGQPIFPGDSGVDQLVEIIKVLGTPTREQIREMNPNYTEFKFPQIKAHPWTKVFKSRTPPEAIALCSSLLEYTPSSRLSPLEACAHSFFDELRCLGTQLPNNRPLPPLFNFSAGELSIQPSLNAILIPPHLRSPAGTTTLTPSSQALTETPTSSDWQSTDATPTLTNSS
Glycogen synthase kinase-3 beta, sequence (P49841 whole entry): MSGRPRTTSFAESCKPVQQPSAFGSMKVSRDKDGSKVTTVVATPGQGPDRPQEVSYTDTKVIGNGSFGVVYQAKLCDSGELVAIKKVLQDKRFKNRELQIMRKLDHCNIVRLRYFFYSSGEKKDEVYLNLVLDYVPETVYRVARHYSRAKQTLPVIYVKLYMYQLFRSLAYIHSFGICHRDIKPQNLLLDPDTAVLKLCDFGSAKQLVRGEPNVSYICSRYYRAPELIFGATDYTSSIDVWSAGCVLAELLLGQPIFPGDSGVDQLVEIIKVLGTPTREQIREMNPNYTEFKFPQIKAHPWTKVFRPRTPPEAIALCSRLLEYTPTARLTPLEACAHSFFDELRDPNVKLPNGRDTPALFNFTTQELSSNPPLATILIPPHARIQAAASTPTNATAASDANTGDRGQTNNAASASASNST

Compound	IC50 [1]	IC50 [2]
CC1(C)CC(=O)C2=C(C1)NC1=C(CN=N1)[C@]21CCOC2(CCC2)C1 [US20250313563, Compound 897756]	100 to 1000 nM	100 to 1000 nM
C[C@@H]1C[C@@]2(CCO1)C1=C(N=NC1)NC1=C2C(=O)CC(C)(C)C1 [US20250313563, Compound 899559]	100 to 1000 nM	1000 to 5000 nM
C[C@H]1C[C@]2(CCO1)C1=C(N=NC1)NC1=C2C(=O)CC(C)(C)C1 [US20250313563, Compound 899560]	100 to 1000 nM	1000 to 5000 nM
CC1(C(F)(F)F)CC(=O)C2=C(C1)NC1=C(CN=N1)C21CCOCC1 (stereo not given) [US20250313563, Compound 901458]	100 to 1000 nM	100 to 1000 nM
O=C1C2=C(NC3N=NC=C3C23CCOCC3)C2CCC1C2 (stereo not given) [US20250313563, Compound 901464]	100 to 1000 nM	100 to 1000 nM
CC1(C)CC(=O)C2=C(C1)NC1=C(CN=N1)C21CCN(S(=O)(=O)c2ccccc2F)CC1 [US20250313563, Compound 901465]	< 100 nM	< 100 nM and 100 to 1000 nM
CC1(C)CC(=O)C2=C(C1)NC1=C(CN=N1)C21CCN(S(=O)(=O)c2cccc(F)c2)CC1 [US20250313563, Compound 901466]	< 100 nM	< 100 nM
Cn1cc(S(=O)(=O)N2CCC3(CC2)C2=C(N=NC2)NC2=C3C(=O)CC(C)(C)C2)cn1 [US20250313563, Compound 901467]	< 100 nM and 100 to 1000 nM	< 100 nM and 1000 to 5000 nM
COc1cccc(S(=O)(=O)N2CCC3(CC2)C2=C(N=NC2)NC2=C3C(=O)CC(C)(C)C2)c1 [US20250313563, Compound 901468]	< 100 nM and 100 to 1000 nM	< 100 nM and 1000 to 5000 nM
COc1ccc(S(=O)(=O)N2CCC3(CC2)C2=C(N=NC2)NC2=C3C(=O)CC(C)(C)C2)cc1 [US20250313563, Compound 901469]	100 to 1000 nM	100 to 1000 nM
CC1(C)CC(=O)C2=C(C1)NC1=C(CN=N1)C21CCN(S(=O)(=O)C2CC2)CC1 [US20250313563, Compound 901470]	< 100 nM and 100 to 1000 nM	< 100 nM and 100 to 1000 nM
Cn1ccc(S(=O)(=O)N2CCC3(CC2)C2=C(N=NC2)NC2=C3C(=O)CC(C)(C)C2)n1 [US20250313563, Compound 901471]	< 100 nM and 100 to 1000 nM	< 100 nM and 1000 to 5000 nM
CO[C@H]1C[C@]2(C1)C1=C(N=NC1)NC1=C2C(=O)CC(C)(C)C1 [US20250313563, Compound 901472]	> 5000 nM	> 5000 nM
CO[C@H]1C[C@@]2(C1)C1=C(N=NC1)NC1=C2C(=O)CC(C)(C)C1 [US20250313563, Compound 901473]	> 5000 nM	> 5000 nM
CC1(C)CC(=O)C2=C(C1)NC1=C(CN=N1)C21CN(S(=O)(=O)c2ccccc2)C1 [US20250313563, Compound 901474]	< 100 nM	< 100 nM
O=C1C[C@@]2(CCOC2)CC2=C1C1(CCOCC1)C1=C(N=NC1)N2 [US20250313563, Compound 901475]	100 to 1000 nM	100 to 1000 nM
O=C1C[C@]2(CCOC2)CC2=C1C1(CCOCC1)C1=C(N=NC1)N2 [US20250313563, Compound 901476]	100 to 1000 nM	100 to 1000 nM
O=C1C[C@H](C(F)(F)F)CC2=C1C1(CCOCC1)C1=C(N=NC1)N2 [US20250313563, Compound 901477]	100 to 1000 nM	1000 to 5000 nM
O=C1C[C@@H](C(F)(F)F)CC2=C1C1(CCOCC1)C1=C(N=NC1)N2 [US20250313563, Compound 901478]	100 to 1000 nM	100 to 1000 nM
CC[C@]1(c2cccc(OC)c2)C2=C(CC(C)(C)CC2=O)NC2N=NC(C(=O)OC)=C21 (stereo not given in full) [US20250313563, Compound 901479]	< 100 nM	< 100 nM
CCC1(c2cccc(C(F)(F)F)c2)C2=CN=NC2NC2=C1C(=O)NC1(CCC1)C2 (stereo not given) [US20250313563, Compound 902202]	< 100 nM	< 100 nM
CCC1(c2cccc(N3CC(C)(C)C3C(C)C)c2)C2=CN=NC2NC2=C1C(=O)CC(C)(C)C2 (stereo not given) [US20250313563, Compound 902969]	100 to 1000 nM	1000 to 5000 nM
CCC1(c2cccc(N(C)c3ccncn3)c2)C2=CN=NC2NC2=C1C(=O)CC(C)(C)C2 (stereo not given) [US20250313563, Compound 902970]	< 100 nM	100 to 1000 nM
CCC1(c2cccc(N(C)c3cnccn3)c2)C2=CN=NC2NC2=C1C(=O)CC(C)(C)C2 (stereo not given) [US20250313563, Compound 902971]	< 100 nM	< 100 nM
CC1(C)CC(=O)C2=C(C1)NC1=C(CN=N1)[C@@]21CCOC2(CCCC2)C1 [US20250313563, Compound 907326]	100 to 1000 nM	1000 to 5000 nM
CC1(C)CC(=O)C2=C(C1)NC1N=NC=C1[C@]21CCOC2(CCCC2)C1 (stereo not given in full) [US20250313563, Compound 907327]	100 to 1000 nM	1000 to 5000 nM
CC[C@@H]1C[C@@]2(CCO1)C1=C(N=NC1)NC1=C2C(=O)CC(C)(C)C1 [US20250313563, Compound 907328]	100 to 1000 nM	1000 to 5000 nM
CC[C@H]1C[C@]2(CCO1)C1=C(N=NC1)NC1=C2C(=O)CC(C)(C)C1 [US20250313563, Compound 907329]	100 to 1000 nM	1000 to 5000 nM

Compound	IC50 [1]	IC50 [2]
CCC1(c2cccc(N(C)C(=O)c3ccccc3)c2)C2=CN=NC2NC2=C1C(=O)CC(C)(C)C2 (stereo not given) [US20250313563, Compound 909201]	< 100 nM	100 to 1000 nM
CCC1(c2cccc(N(C)C(=O)CN3CCCC3)c2)C2=CN=NC2NC2=C1C(=O)CC(C)(C)C2 (stereo not given) [US20250313563, Compound 909202]	100 to 1000 nM	1000 to 5000 nM
CCC1(c2cc(N3CCOCC3)ccc2F)C2=CN=NC2NC2=C1C(=O)CC(C)(C)C2 (stereo not given) [US20250313563, Compound 909203]	100 to 1000 nM	1000 to 5000 nM
CCC1(c2cccc(S(=O)(=O)C3CC3)c2)C2=CN=NC2NC2=C1C(=O)CC(C)(C)C2 (stereo not given) [US20250313563, Compound 909204]	< 100 nM	< 100 nM and 100 to 1000 nM
CCCC(C(C)=O)c1cccc(C2(CC)C3=CN=NC3NC3=C2C(=O)CC(C)(C)C3)c1 (stereo not given) [US20250313563, Compound 909205]	< 100 nM	< 100 nM
CC1(C)CC(=O)C2=C(C1)NC1=C(CN=N1)C21CCN(S(=O)(=O)C2CCCC2)CC1 [US20250313563, Compound 909206]	< 100 nM	< 100 nM and 100 to 1000 nM
CC1(C)CC(=O)C2=C(C1)NC1=C(CN=N1)C21CCN(S(=O)(=O)CC2CC2)CC1 [US20250313563, Compound 909207]	< 100 nM	< 100 nM and 100 to 1000 nM
O=C1CC2(CCC2)CC2=C1C1(CCOCC1)C1=C(N=NC1)N2 [US20250313563, Compound 909208]	< 100 nM	100 to 1000 nM
CC1(C)CC(=O)C2=C(C1)NC1=C(CN=N1)C21CN(c2ccncn2)C1 [US20250313563, Compound 909209]	1000 to 5000 nM	1000 to 5000 nM
CC1(C)CC(=O)C2=C(C1)NC1=C(CN=N1)[C@]21C[C@H](OCc2ccccc2)C1 [US20250313563, Compound 909210]	100 to 1000 nM	100 to 1000 nM
CC1(C)CC(=O)C2=C(C1)NC1=C(CN=N1)[C@]21C[C@@H](OCc2ccccc2)C1 [US20250313563, Compound 909211]	< 100 nM	100 to 1000 nM
CC[C@]1(c2cc(-c3ccnc(C)c3)ccc2F)C2=CN=NC2NC2=C1C(=O)CC(C)(C)C2 (stereo not given in full) [US20250313563, Compound 909212]	< 100 nM	100 to 1000 nM
CC[C@@]1(c2cc(-c3ccnc(C)c3)ccc2F)C2=CN=NC2NC2=C1C(=O)CC(C)(C)C2 (stereo not given in full) [US20250313563, Compound 909213]	> 5000 nM	> 5000 nM
CCN(C(C)=O)c1cccc([C@@]2(CC)C3=CN=NC3NC3=C2C(=O)CC(C)(C)C3)c1 (stereo not given in full) [US20250313563, Compound 909214]	< 100 nM	< 100 nM
CCN(C(C)=O)c1cccc([C@]2(CC)C3=CN=NC3NC3=C2C(=O)CC(C)(C)C3)c1 (stereo not given in full) [US20250313563, Compound 909215]	100 to 1000 nM	1000 to 5000 nM
CC[C@]1(c2ccccc2)C2=CN=NC2NC2=C1C(=O)[C@H](C)C[C@@H]2C (stereo not given in full) [US20250313563, Compound 909216]	100 to 1000 nM	100 to 1000 nM
CC[C@@]1(c2ccccc2)C2=CN=NC2NC2=C1C(=O)[C@H](C)C[C@@H]2C (stereo not given in full) [US20250313563, Compound 909217]	100 to 1000 nM	1000 to 5000 nM
CC[C@@]1(c2ccccc2)C2=CN=NC2NC2=C1C(=O)[C@@H](C)C[C@H]2C (stereo not given in full) [US20250313563, Compound 909218]	> 5000 nM	> 5000 nM
CC[C@]1(c2ccccc2)C2=CN=NC2NC2=C1C(=O)[C@@H](C)C[C@H]2C (stereo not given in full) [US20250313563, Compound 909219]	> 5000 nM	> 5000 nM
CC[C@]1(c2cc(-c3cnn(C)c3)ccc2F)C2=CN=NC2NC2=C1C(=O)CC(C)(C)C2 (stereo not given in full) [US20250313563, Compound 909220]	< 100 nM	100 to 1000 nM
CC[C@@]1(c2cc(-c3cnn(C)c3)ccc2F)C2=CN=NC2NC2=C1C(=O)CC(C)(C)C2 (stereo not given in full) [US20250313563, Compound 909223]	> 5000 nM	> 5000 nM
CC1(C)CC(=O)C2=C(C1)NC1=C(CN=N1)C21COC2(CN(C(=O)OC(C)(C)C)C2)C1 (stereo not given) [US20250313563, Compound 911083]	100 to 1000 nM	1000 to 5000 nM
CCC1(c2cccc(C(F)(F)F)c2)C2=CN=NC2NC2=C1C(=O)NC(C)C2 (stereo not given) [US20250313563, Compound 911956]	< 100 nM	100 to 1000 nM
CC1OCCC12C1=C(N=NC1)NC1=C2C(=O)CC(C)(C)C1 (stereo not given) [US20250313563, Compound 911958]	> 5000 nM	> 5000 nM
CC[C@H]1CCN1c1cccc([C@@]2(CC)C3=CN=NC3NC3=C2C(=O)CC(C)(C)C3)c1 (stereo not given in full) [US20250313563, Compound 911969]	< 100 nM	100 to 1000 nM
CC[C@@H]1CCN1c1cccc([C@@]2(CC)C3=CN=NC3NC3=C2C(=O)CC(C)(C)C3)c1 (stereo not given in full) [US20250313563, Compound 911970]	< 100 nM	100 to 1000 nM
CC[C@H]1CCN1c1cccc([C@]2(CC)C3=CN=NC3NC3=C2C(=O)CC(C)(C)C3)c1 (stereo not given in full) [US20250313563, Compound 911972]	1000 to 5000 nM	> 5000 nM
